# According to patent US8871753B2, “Macrocyclic compounds and their use as kinase inhibitors” (Incyte Corporation, priority 2008, dated 2014):
# Structures can show the parent of a compound that is named as a salt.
# How the values were obtained:
# Assay type in all cases: biochemical
# [1] = molecular target: T1, human JAK1 (a.a. 837-1142) (Homo sapiens, UniProt P23458); experiment: In vitro JAK kinase assay (HTRF, phosphorylation of a biotinylated peptide), JAK1; details: Table D1; read-out: JAK1 IC50
# T1 construct: human JAK1 (a.a. 837-1142); His tag (N); made in house; host or cells: insect cells (baculovirus)
# How it was run: (§1)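 Phosphorylation of a biotinylated peptide by the JAK kinase domain, detected by HTRF with Eu-Py20 and SA-APC. ATP was 90 μM for JAK1, 30 μM for JAK2 and 3 μM for JAK3. Reactions ran 1 h at room temperature and were stopped with EDTA, followed by 40 min antibody binding.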
# [2] = molecular target: T2, human JAK2 (a.a. 828-1132) (Homo sapiens, UniProt O60674); experiment: In vitro JAK kinase assay (HTRF, phosphorylation of a biotinylated peptide), JAK2; details: Table D1
# T2 construct: JAK2 (a.a. 828-1132); His tag (N); made in house; host or cells: insect cells (baculovirus)
# How it was run: as §1
# [3] = molecular target: T3, human JAK3 (a.a. 781-1124) (Homo sapiens, UniProt P52333); experiment: In vitro JAK kinase assay (HTRF, phosphorylation of a biotinylated peptide), JAK3; details: Table D1
# T3 construct: JAK3 (a.a. 781-1124); His tag (N); made in house; host or cells: insect cells (baculovirus)
# How it was run: as §1
# TYK2 = TYK2 (Homo sapiens, UniProt P29597); experiment: TYK2 kinase inhibition (Table A1); details: Table D1
# [4] = molecular target: T4, Recombinant Human Anaplastic Lymphoma Kinase (Homo sapiens, UniProt Q9UM73); experiment: ALK HTRF kinase assay; details: Table D1; 90 μM ATP
# T4 construct: purchased Invitrogen, Carlsbad, Calif
# How it was run: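 Compounds were incubated with recombinant human ALK and a biotin-tagged peptide substrate. Product was captured with streptavidin-APC and probed with a europium anti-phosphotyrosine antibody, and plates were read for time-resolved fluorescence. Dose-response data were fitted to derive IC50.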
# T2 sequence (O60674 828-1132): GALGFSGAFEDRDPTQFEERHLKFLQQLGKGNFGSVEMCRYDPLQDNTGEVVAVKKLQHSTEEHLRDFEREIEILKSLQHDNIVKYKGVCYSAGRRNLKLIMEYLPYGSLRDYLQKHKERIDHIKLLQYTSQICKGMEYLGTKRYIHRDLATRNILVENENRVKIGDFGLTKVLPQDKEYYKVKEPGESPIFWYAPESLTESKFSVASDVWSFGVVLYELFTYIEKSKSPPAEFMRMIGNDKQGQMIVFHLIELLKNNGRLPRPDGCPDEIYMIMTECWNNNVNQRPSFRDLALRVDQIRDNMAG
# T4 sequence (Q9UM73 19-1620): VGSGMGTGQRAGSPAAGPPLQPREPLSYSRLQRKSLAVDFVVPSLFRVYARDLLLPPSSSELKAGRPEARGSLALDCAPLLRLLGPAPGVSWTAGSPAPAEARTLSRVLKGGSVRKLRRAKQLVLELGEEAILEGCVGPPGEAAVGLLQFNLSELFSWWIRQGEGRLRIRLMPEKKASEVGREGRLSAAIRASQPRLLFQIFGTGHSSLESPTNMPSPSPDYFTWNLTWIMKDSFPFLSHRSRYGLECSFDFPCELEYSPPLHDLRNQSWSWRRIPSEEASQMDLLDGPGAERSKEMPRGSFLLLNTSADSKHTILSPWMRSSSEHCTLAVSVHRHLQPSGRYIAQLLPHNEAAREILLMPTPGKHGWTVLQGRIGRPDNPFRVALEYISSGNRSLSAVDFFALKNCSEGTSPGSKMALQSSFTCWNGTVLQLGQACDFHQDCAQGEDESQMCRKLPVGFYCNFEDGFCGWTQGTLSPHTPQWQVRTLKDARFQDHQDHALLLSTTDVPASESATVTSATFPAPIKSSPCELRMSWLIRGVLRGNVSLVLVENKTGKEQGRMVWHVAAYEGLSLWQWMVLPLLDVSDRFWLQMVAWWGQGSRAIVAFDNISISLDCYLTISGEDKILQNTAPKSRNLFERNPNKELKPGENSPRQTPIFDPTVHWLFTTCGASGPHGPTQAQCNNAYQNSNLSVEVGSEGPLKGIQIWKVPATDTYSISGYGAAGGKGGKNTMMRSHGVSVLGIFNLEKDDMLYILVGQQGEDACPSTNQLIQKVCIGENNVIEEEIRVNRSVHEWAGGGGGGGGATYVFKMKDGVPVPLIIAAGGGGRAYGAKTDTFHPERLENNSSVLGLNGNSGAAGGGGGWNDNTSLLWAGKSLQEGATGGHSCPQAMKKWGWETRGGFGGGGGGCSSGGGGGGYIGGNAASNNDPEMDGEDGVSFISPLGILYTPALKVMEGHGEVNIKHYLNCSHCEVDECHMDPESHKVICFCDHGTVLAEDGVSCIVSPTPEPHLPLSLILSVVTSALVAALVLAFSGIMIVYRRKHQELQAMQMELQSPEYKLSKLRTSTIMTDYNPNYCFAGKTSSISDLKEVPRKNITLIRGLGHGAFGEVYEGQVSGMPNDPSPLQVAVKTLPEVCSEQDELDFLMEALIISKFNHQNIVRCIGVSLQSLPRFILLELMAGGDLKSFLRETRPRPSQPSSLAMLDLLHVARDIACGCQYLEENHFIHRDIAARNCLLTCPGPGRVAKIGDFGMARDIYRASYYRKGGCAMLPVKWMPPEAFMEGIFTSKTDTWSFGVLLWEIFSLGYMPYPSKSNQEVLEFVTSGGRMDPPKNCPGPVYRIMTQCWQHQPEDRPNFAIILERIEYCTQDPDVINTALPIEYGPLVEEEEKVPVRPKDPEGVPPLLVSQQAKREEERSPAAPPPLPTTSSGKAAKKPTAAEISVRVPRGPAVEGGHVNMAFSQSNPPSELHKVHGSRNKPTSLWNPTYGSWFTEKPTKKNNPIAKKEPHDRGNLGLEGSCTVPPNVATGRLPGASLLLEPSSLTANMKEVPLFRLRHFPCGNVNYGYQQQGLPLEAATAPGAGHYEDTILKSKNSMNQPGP
# Sequence of TYK2 (P29597 whole entry): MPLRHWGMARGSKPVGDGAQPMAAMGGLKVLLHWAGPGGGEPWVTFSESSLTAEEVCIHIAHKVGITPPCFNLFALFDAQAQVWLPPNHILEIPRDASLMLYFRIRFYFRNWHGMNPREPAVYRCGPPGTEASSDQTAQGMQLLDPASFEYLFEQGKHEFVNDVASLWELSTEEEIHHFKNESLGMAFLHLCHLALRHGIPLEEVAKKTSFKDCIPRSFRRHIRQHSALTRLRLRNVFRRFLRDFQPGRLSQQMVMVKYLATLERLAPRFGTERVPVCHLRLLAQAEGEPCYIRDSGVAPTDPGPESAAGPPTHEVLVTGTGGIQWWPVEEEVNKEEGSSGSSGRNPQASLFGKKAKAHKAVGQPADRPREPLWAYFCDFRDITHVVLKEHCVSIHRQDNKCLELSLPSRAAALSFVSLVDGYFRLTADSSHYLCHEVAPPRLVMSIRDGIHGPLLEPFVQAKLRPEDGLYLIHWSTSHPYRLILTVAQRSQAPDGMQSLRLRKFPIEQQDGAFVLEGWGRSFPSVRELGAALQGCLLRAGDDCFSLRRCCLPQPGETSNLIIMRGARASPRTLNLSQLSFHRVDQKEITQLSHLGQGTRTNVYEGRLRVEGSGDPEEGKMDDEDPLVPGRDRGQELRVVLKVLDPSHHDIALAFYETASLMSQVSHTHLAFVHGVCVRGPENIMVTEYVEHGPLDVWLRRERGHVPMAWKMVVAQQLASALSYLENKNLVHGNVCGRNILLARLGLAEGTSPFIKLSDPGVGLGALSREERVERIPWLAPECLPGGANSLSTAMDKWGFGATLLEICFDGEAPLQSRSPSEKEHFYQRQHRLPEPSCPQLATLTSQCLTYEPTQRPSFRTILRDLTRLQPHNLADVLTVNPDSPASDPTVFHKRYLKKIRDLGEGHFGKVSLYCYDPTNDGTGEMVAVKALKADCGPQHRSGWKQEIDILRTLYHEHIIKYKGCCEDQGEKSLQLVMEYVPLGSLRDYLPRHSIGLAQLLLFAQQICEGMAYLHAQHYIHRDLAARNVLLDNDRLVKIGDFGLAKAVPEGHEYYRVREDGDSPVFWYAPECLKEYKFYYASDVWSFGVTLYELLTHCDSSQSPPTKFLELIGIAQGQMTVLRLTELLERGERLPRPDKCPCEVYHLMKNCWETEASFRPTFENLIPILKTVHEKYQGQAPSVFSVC
# T1 sequence (P23458 849-1154): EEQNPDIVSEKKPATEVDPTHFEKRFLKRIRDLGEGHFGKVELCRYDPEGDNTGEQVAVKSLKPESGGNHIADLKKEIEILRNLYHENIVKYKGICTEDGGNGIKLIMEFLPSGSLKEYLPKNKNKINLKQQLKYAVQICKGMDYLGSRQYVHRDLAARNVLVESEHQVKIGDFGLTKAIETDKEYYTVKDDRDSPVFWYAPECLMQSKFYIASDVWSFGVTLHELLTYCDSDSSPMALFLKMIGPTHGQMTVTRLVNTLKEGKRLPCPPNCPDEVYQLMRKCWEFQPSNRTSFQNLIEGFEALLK
# T3 sequence (P52333 781-1124): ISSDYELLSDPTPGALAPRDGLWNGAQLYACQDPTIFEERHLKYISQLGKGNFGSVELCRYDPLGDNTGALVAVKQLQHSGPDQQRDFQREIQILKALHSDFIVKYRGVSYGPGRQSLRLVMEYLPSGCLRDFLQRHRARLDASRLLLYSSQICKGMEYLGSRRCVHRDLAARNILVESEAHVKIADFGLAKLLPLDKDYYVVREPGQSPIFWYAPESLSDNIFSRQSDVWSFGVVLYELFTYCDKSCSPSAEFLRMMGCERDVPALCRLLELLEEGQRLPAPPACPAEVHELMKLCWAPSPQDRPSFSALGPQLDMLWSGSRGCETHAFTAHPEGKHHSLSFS
Compound,IC50 [1],IC50 [2],IC50 [3],IC50 (TYK2),IC50 [4]
"O=C(Nc1ccccc1)c1cc2cc(c1)OCCSc1cccc(c1)Nc1nc(ncc1Cl)N2 [Example D50, 6-Chloro-N-phenyl-17-oxa-14-thia-2,4,8,24-tetraazatetracyclo[16.3.1.1(3,7).1(9,13)]tetracosa-1(22),3(24),4,6,9(23),10,12,18,20-nonaene-20-carboxamide trifluoroacetate]",7.3 nM,4.1 nM,55 nM,16 nM,1500 nM
"O=C(NCc1ccccc1)c1cc2cc(c1)OCCSc1cccc(c1)Nc1nc(ncc1Cl)N2 [Example D51, N-Benzyl-6-chloro-17-oxa-14-thia-2,4,8,24-tetraazatetracyclo[16.3.1.1(3,7).1(9,13)]tetracosa-1(22),3(24),4,6,9(23),10,12,18,20-nonaene-20-carboxamide trifluoroacetate]",1.8 nM,1.2 nM,14 nM,4.5 nM,910 nM
"O=C(c1cc2cc(c1)OCCSc1cccc(c1)Nc1nc(ncc1Cl)N2)N1CCOCC1 [Example D52, trifluoroacetate]",1.5 nM,1.2 nM,13 nM,4.4 nM,420 nM
"O=C(c1cc2cc(c1)OCCSc1cccc(c1)Nc1nc(ncc1Cl)N2)N1CCN(c2ccccc2)CC1 [Example D53, 6-Chloro-20-[(4-phenylpiperazin-1-yl)carbonyl]-17-oxa-14-thia-2,4,8,24-tetraazatetracyclo[16.3.1.1(3,7).1(9,13)]tetracosa-1(22),3(24),4,6,9(23),10,12,18,20-nonaene bis(trifluoroacetate)]",27 nM,34 nM,273 nM,28 nM,1150 nM
"O=C(Nc1nccs1)c1cc2cc(c1)OCCSc1cccc(c1)Nc1nc(ncc1Cl)N2 [Example D54, 6-Chloro-N-1,3-thiazol-2-yl-17-oxa-14-thia-2,4,8,24-tetraazatetracyclo[16.3.1.1(3,7).1(9,13)]tetracosa-1(22),3(24),4,6,9(23),10,12,18,20-nonaene-20-carboxamide trifluoroacetate]",18 nM,15 nM,132 nM,27 nM,1220 nM
"Cn1c(NC(=O)c2cc3cc(c2)OCCSc2cccc(c2)Nc2nc(ncc2Cl)N3)nc2ccccc21 [Example D55, 6-Chloro-N-(1-methyl-1H-benzimidazol-2-yl)-17-oxa-14-thia-2,4,8,24-tetraazatetracyclo[16.3.1.1(3,7).1(9,13)]tetracosa-1(22),3(24),4,6,9(23),10,12,18,20-nonaene-20-carboxamide bis(trifluoroacetate)]",56 nM,40 nM,129 nM,88 nM,> 10000 nM
"O=C(Nc1ccc2[nH]ccc2c1)c1cc2cc(c1)OCCSc1cccc(c1)Nc1nc(ncc1Cl)N2 [Example D56, 6-Chloro-N-1H-indol-5-yl-17-oxa-14-thia-2,4,8,24-tetraazatetracyclo[16.3.1.1(3,7).1(9,13)]tetracosa-1(22),3(24),4,6,9(23),10,12,18,20-nonaene-20-carboxamide trifluoroacetate]",10 nM,4.8 nM,42 nM,14 nM,1940 nM
"O=C(Nc1cc2cc(c1)OCCSc1cccc(c1)Nc1nc(ncc1Cl)N2)c1ccccc1 [Example D57, N-[6-Chloro-17-oxa-14-thia-2,4,8,24-tetraazatetracyclo[16.3.1.1(3,7).1(9,13)]tetracosa-1(22),3(24),4,6,9(23),10,12,18,20-nonaen-20-yl]benzamide trifluoroacetate]",11 nM,2.3 nM,21 nM,7.4 nM,430 nM
"Cc1cc(C(=O)Nc2cc3cc(c2)OCCSc2cccc(c2)Nc2nc(ncc2Cl)N3)no1 [Example D58, N-[6-Chloro-17-oxa-14-thia-2,4,8,24-tetraazatetracyclo[16.3.1.1(3,7).1(9,13)]tetracosa-1(22),3(24),4,6,9(23),10,12,18,20-nonaen-20-yl]-5-methylisoxazole-3-carboxamide trifluoroacetate]",6.5 nM,1.3 nM,21 nM,2.5 nM,490 nM
"O=C(Nc1cc2cc(c1)OCCSc1cccc(c1)Nc1nc(ncc1Cl)N2)c1ccno1 [Example D59, N-[6-Chloro-17-oxa-14-thia-2,4,8,24-tetraazatetracyclo[16.3.1.1(3,7).1(9,13)]tetracosa-1(22),3(24),4,6,9(23),10,12,18,20-nonaen-20-yl]isoxazole-5-carboxamide trifluoroacetate]",2.3 nM,0.6 nM,7.1 nM,2.1 nM,200 nM
"O=C(Nc1cc2cc(c1)OCCSc1cccc(c1)Nc1nc(ncc1Cl)N2)c1ccncc1 [Example D60, N-[6-Chloro-17-oxa-14-thia-2,4,8,24-tetraazatetracyclo[16.3.1.1(3,7).1(9,13)]tetracosa-1(22),3(24),4,6,9(23),10,12,18,20-nonaen-20-yl]isonicotinamide bis(trifluoroacetate)]",2 nM,0.6 nM,5 nM,1.3 nM,130 nM
"O=C(Nc1cc2cc(c1)OCCSc1cccc(c1)Nc1nc(ncc1Cl)N2)c1ccc2occc2c1 [Example D61, N-[6-Chloro-17-oxa-14-thia-2,4,8,24-tetraazatetracyclo[16.3.1.1(3,7).1(9,13)]tetracosa-1(22),3(24),4,6,9(23),10,12,18,20-nonaen-20-yl]-1-benzofuran-5-carboxamide trifluoroacetate]",18 nM,2.1 nM,41 nM,8 nM,> 10000 nM

# Second part, the molecule after the results:
IC50 [1],IC50 [2],IC50 [3],IC50 (TYK2),IC50 [4],Compound
7.3 nM,2.1 nM,18 nM,6.1 nM,380 nM,"O=C(Nc1cc2cc(c1)OCCSc1cccc(c1)Nc1nc(ncc1Cl)N2)c1ccco1 [Example D62, N-[6-Chloro-17-oxa-14-thia-2,4,8,24-tetraazatetracyclo[16.3.1.1(3,7).1(9,13)]tetracosa-1(22),3(24),4,6,9(23),10,12,18,20-nonaen-20-yl]-2-furamide trifluoroacetate]"
6.8 nM,1.5 nM,19 nM,5.4 nM,610 nM,"O=C(Nc1cc2cc(c1)OCCSc1cccc(c1)Nc1nc(ncc1Cl)N2)c1cccs1 [Example D63, N-[6-Chloro-17-oxa-14-thia-2,4,8,24-tetraazatetracyclo[16.3.1.1(3,7).1(9,13)]tetracosa-1(22),3(24),4,6,9(23),10,12,18,20-nonaen-20-yl]thiophene-2-carboxamide trifluoroacetate]"
3.8 nM,0.2 nM,8.4 nM,3.7 nM,450 nM,"O=C(Cc1ccccc1)Nc1cc2cc(c1)OCCSc1cccc(c1)Nc1nc(ncc1Cl)N2 [Example D64, trifluoroacetate]"
18 nM,5.1 nM,16 nM,6.4 nM,> 1000 nM,"O=C(Nc1ccccc1)Nc1cc2cc(c1)OCCSc1cccc(c1)Nc1nc(ncc1Cl)N2 [Example D65, N-[6-Chloro-17-oxa-14-thia-2,4,8,24-tetraazatetracyclo[16.3.1.1(3,7).1(9,13)]tetracosa-1(22),3(24),4,6,9(23),10,12,18,20-nonaen-20-yl]-N′-phenylurea trifluoroacetate]"
7.3 nM,3 nM,9.6 nM,3.4 nM,770 nM,"O=C(NCc1ccccc1)Nc1cc2cc(c1)OCCSc1cccc(c1)Nc1nc(ncc1Cl)N2 [Example D66, N-Benzyl-N′-[6-chloro-17-oxa-14-thia-2,4,8,24-tetraazatetracyclo[16.3.1.1(3,7).1(9,13)]tetracosa-1(22),3(24),4,6,9(23),10,12,18,20-nonaen-20-yl]urea trifluoroacetate]"
3.2 nM,1.8 nM,8.4 nM,2.4 nM,> 1000 nM,"O=C(NCc1ccco1)Nc1cc2cc(c1)OCCSc1cccc(c1)Nc1nc(ncc1Cl)N2 [Example D67, N-[6-Chloro-17-oxa-14-thia-2,4,8,24-tetraazatetracyclo[16.3.1.1(3,7).1(9,13)]tetracosa-1(22),3(24),4,6,9(23),10,12,18,20-nonaen-20-yl]-N′-(2-furylmethyl)urea trifluoroacetate]"
14 nM,5.8 nM,36 nM,32 nM,340 nM,"O=S(=O)(Nc1cc2cc(c1)OCCSc1cccc(c1)Nc1nc(ncc1Cl)N2)c1ccccc1 [Example D68, N-[6-Chloro-17-oxa-14-thia-2,4,8,24-tetraazatetracyclo[16.3.1.1(3,7).1(9,13)]tetracosa-1(22),3(24),4,6,9(23),10,12,18,20-nonaen-20-yl]benzenesulfonamide trifluoroacetate]"
